For 21 compounds, IC50 results are on record in patent publication US20230022157A1 (Achillion Pharmaceuticals, Inc., priority 2018, published 2023).

One may read the IC50 as the concentration needed to halve the response being measured.

T1 sequence (P00746 26-253): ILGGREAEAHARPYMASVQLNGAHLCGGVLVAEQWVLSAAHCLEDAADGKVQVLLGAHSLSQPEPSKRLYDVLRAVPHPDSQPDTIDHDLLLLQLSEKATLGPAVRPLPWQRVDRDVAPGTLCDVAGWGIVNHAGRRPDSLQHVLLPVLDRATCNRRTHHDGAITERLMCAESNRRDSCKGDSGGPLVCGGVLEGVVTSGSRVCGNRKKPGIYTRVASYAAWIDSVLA

The first experiment has as its target T1, Human Factor D (Homo sapiens, UniProt P00746).
T1 construct: purified from human serum; purchased Complement Technology, Inc; host or cells: human serum (natural protein, not recombinant)
The experiment can be described thus: Human Factor D Assay. As to conditions: Human Factor D 80 nM, substrate Z-L-Lys-SBzl, assay of Example 3; read-out: IC50 (Stars). The class given is biochemical. The procedure, abridged:
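Serum-purified human factor D (80 nM final) preincubated 5 min at room temperature with test compound in 50 mM Tris, 1M NaCl, pH 7.5. Z-L-Lys-SBzl substrate and DTNB then added, each at 100 μM final. IC50 from nonlinear regression of reaction rate against compound concentration.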
In the case of `CC(=O)c1nn(CC(=O)N2[C@H](C(=O)N[C@H](C)CCc3ccccc3)C[C@@]3(C)C[C@@H]23)c2ccc(-c3cnc(C)nc3)cc12` [Compound 13, (1R,3S,5R)-2-(2-(3-Acetyl-5-(2-methylpyrimidin-5-yl)-1H-indazol-1-yl)acetyl)-5-methyl-N—((R)-4-phenylbutan-2-yl)-2-azabicyclo[3.1.0]hexane-3-carboxamide], the IC50 was less than 1000 nM.
For `CC(=O)c1nn(CC(=O)N2[C@H](C(=O)NCCc3ccc(F)cc3)C[C@@]3(C)C[C@@H]23)c2c(C)cc(-c3cnc(C)nc3)cc12` [Compound 2, (1R,3S,5R)-2-(2-(3-Acetyl-7-methyl-5-(2-methylpyrimidin-5-yl)-1H-indazol-1-yl)acetyl)-N-(4-fluorophenethyl)-5-methyl-2-azabicyclo[3.1.0]hexane-3-carboxamide], the IC50 was less than 1000 nM.
Regarding `CC(=O)c1nn(CC(=O)N2[C@H](C(=O)NCCc3ccccc3Cl)C[C@@]3(C)C[C@@H]23)c2c(C)cc(-c3cnc(C)nc3)cc12` [Compound 3, (1R,3S,5R)-2-(2-(3-Acetyl-7-methyl-5-(2-methylpyrimidin-5-yl)-1H-indazol-1-yl)acetyl)-N-(2-chlorophenethyl)-5-methyl-2-azabicyclo[3.1.0]hexane-3-carboxamide], the IC50 is less than 1000 nM.

The experiment is the same for the next values; noted with them: Human Factor D 80 nM, substrate Z-L-Lys-SBzl; Table 2; read-out: IC50 (Stars).
Turning to `CC(=O)c1nn(CC(=O)N2[C@H]3CC[C@H](C3)[C@H]2C(=O)Nc2nc(C(F)(F)F)ccc2C)c2ccc(-c3cnc4cc(C)nn4c3)cc12` [Compound 213, (1S,3S,4R)-2-(2-(3-acetyl-5-(2-methylpyrazolo[1,5-a]pyrimidin-6-yl)-1H-indazol-1-yl)acetyl)-N-(3-methyl-6-(trifluoromethyl)pyridin-2-yl)-2-azabicyclo[2.2.1]heptane-3-carboxamide], the half-maximal inhibitory concentration (IC50) was less than 1000 nM.
With `CC(=O)c1cn(CC(=O)N2[C@H](C(=O)Nc3nccc(C(F)(F)F)n3)C[C@@]3(C)C[C@@H]23)c2c(C)cc(-c3cnc(C)nc3)cc12` [Compound 235, (1R,3S,5R)-2-(2-(3-acetyl-7-methyl-5-(2-methylpyrimidin-5-yl)-1H-indol-1-yl)acetyl)-5-methyl-N-(4-(trifluoromethyl)pyrimidin-2-yl)-2-azabicyclo[3.1.0]hexane-3-carboxamide], the IC50 was less than 1000 nM.
`CC(=O)c1nn(CC(=O)N2[C@H](C(=O)Nc3nc(Br)ccc3C)C[C@@]3(C)C[C@@H]23)c2cc(CF)c(Nc3cnc(C)nc3)cc12` [Compound 185, (1R,3S,5R)-2-(2-(3-acetyl-6-(fluoromethyl)-5-((2-methylpyrimidin-5-yl)amino)-1H-indazol-1-yl)acetyl)-N-(6-bromo-3-methylpyridin-2-yl)-5-methyl-2-azabicyclo[3.1.0]hexane-3-carboxamide]: the half-maximal inhibitory concentration (IC50) was less than 1000 nM.
As to `C=CCC(Cc1ccccc1)NC(=O)[C@@H]1C[C@@]2(C)C[C@H]2N1C(=O)Cn1nc(C(C)=O)c2cc(-c3cnc(C)nc3)cc(C)c21` (stereo partly drawn) [Compound 174, (1R,3S,5R)-2-{2-[3-acetyl-7-methyl-5-(2-methylpyrimidin-5-yl)indazol-1-yl]acetyl}-5-methyl-N-(1-phenylpent-4-en-2-yl)-2-azabicyclo[3.1.0]hexane-3-carboxamide], the IC50 is less than 1000 nM.
Still for that read-out and setting: as for `CC(=O)c1nn(CC(=O)N2C[C@H]3C[C@H]3[C@H]2C(=O)Nc2nc(Br)ccc2Cl)c2c(C)cc(-c3cnc(CO)nc3)cc12` [Compound 75, (1R,2S,5S)-3-(2-(3-acetyl-5-(2-(hydroxymethyl)pyrimidin-5-yl)-7-methyl-11H-indazol-1-yl)acetyl)-N-(6-bromo-3-chloropyridin-2-yl)-3-azabicyclo[3.1.0]hexane-2-carboxamide], the figure is less than 1000 nM.
In the case of `CC(=O)c1nn(CC(=O)N2[C@H](C(=O)Nc3nc(Br)c(F)cc3C)C[C@@]3(C)C[C@@H]23)c2c(C)cc(-c3cnc(C(C)O)cn3)cc12` (stereo partly drawn) [Compound 204, (1R,3S,5R)-2-(2-(3-acetyl-5-(5-(1-hydroxyethyl)pyrazin-2-yl)-7-methyl-1H-indazol-1-yl)acetyl)-N-(6-bromo-5-fluoro-3-methylpyridin-2-yl)-5-methyl-2-azabicyclo[3.1.0]hexane-3-carboxamide], the IC50 was less than 1000 nM.
For the compound `CC(=O)c1nn(CC(=O)N2[C@H](C(=O)Nc3nc(Br)ccc3C)C[C@@]3(C)C[C@@H]23)c2c(C)cc(-c3cnc(C(C)(C)O)nc3)cc12` [Compound 41, (1R,3S,5R)-2-(2-(3-acetyl-5-(2-(2-hydroxypropan-2-yl)pyrimidin-5-yl)-7-methyl-1H-indazol-1-yl)acetyl)-N-(6-bromo-3-methylpyridin-2-yl)-5-methyl-2-azabicyclo[3.1.0]hexane-3-carboxamide], the IC50 is less than 1000 nM.
For `CCCC(C)(C)CNC(=O)[C@@H]1C[C@@]2(C)C[C@H]2N1C(=O)Cn1nc(C(C)=O)c2cc(-c3cnc(C)nc3)cc(C)c21` [Compound 116, (1R,3S,5R)-2-{2-[3-acetyl-7-methyl-5-(2-methylpyrimidin-5-yl)indazol-1-yl]acetyl}-N-(2,2-dimethylpentyl)-5-methyl-2-azabicyclo[3.1.0]hexane-3-carboxamide], the IC50 is less than 1000 nM.
Regarding `CC(=O)c1cn(CC(=O)N2[C@H](C(=O)Nc3cnc(C)c(Br)n3)C[C@@]3(C)C[C@@H]23)c2c(C)cc(-c3cnc(C)nc3)cc12` [Compound 160, (1R,3S,5R)-2-(2-(3-acetyl-7-methyl-5-(2-methylpyrimidin-5-yl)-1H-indol-1-yl)acetyl)-N-(6-bromo-5-methylpyrazin-2-yl)-5-methyl-2-azabicyclo[3.1.0]hexane-3-carboxamide], the IC50 is less than 1000 nM.
Regarding `Cc1ncc(-c2cc3c(C(N)=O)nn(CC(=O)N4C[C@H]5C[C@H]5[C@H]4C(=O)Nc4nc(Br)c(F)cc4C)c3c(C)n2)cn1` [Compound 111, 1-{2-[2-(6-Bromo-5-fluoro-3-methyl-pyridin-2-ylcarbamoyl)-3-aza-bicyclo[3.1.0]hex-3-yl]-2-oxo-ethyl}-7-methyl-5-(2-methyl-pyrimidin-5-yl)-1H-pyrazolo[3,4-c]pyridine-3-carboxylic acid amide], the concentration for half-maximal inhibition (IC50) was less than 1000 nM.
Take `CC(=O)c1nn(CC(=O)N2[C@H](C(=O)Nc3nc(Br)ccc3C3CC3)C[C@@]3(C)C[C@@H]23)c2c(C)cc(-c3cnc(CO)nc3)cc12` [Compound 66, (1R,3S,5R)-2-(2-(3-acetyl-5-(2-(hydroxymethyl)pyrimidin-5-yl)-7-methyl-11H-indazol-1-yl)acetyl)-N-(6-bromo-3-cyclopropylpyridin-2-yl)-5-methyl-2-azabicyclo[3.1.0]hexane-3-carboxamide]: the half-maximal inhibitory concentration (IC50) is less than 1000 nM.
Take `C#CCC(Cc1ccccc1)NC(=O)[C@@H]1C[C@@]2(C)C[C@H]2N1C(=O)Cn1nc(C(C)=O)c2cc(-c3cnc(C)nc3)cc(C)c21` (stereo partly drawn) [Compound 175, (1R,3S,5R)-2-{2-[3-acetyl-7-methyl-5-(2-methylpyrimidin-5-yl)indazol-1-yl]acetyl}-5-methyl-N-(1-phenylpent-4-yn-2-yl)-2-azabicyclo[3.1.0]hexane-3-carboxamide]: the half-maximal inhibitory concentration (IC50) is less than 1000 nM.
In the case of `COC(=O)c1ncc(-c2cc(C)c3c(c2)c(C(C)=O)nn3CC(=O)N2[C@H](C(=O)Nc3nc(Br)c(F)cc3C)C[C@@]3(C)C[C@@H]23)cn1` [Compound 44, Methyl 5-(3-acetyl-1-(2-((1R,3S,5R)-3-((6-bromo-5-fluoro-3-methylpyridin-2-yl)carbamoyl)-5-methyl-2-azabicyclo[3.1.0]hexan-2-yl)-2-oxoethyl)-7-methyl-1H-indazol-5-yl)pyrimidine-2-carboxylate], the IC50 was less than 1000 nM.
Same read-out and setting: as for `CC(=O)c1cn(CC(=O)N2[C@H](C(=O)Nc3nc(Br)ccc3C)C[C@@]3(C)C[C@@H]23)c2c(C)cc(-c3cnc(CF)nc3)cc12` [Compound 221, (1R,3S,5R)-2-(2-(3-acetyl-5-(2-(fluoromethyl)pyrimidin-5-yl)-7-methyl-1H-indol-1-yl)acetyl)-N-(6-bromo-3-methylpyridin-2-yl)-5-methyl-2-azabicyclo[3.1.0]hexane-3-carboxamide], the figure is less than 1000 nM; as for `CC(=O)c1nn(CC(=O)N2[C@H](C(=O)Nc3nc(C(F)(F)F)ccc3C)C[C@@]3(C)C[C@@H]23)c2c(C)cc(-c3cnc4cc(CO)nn4c3)cc12` [Compound 227, (1R,3S,5R)-2-(2-(3-acetyl-5-(2-(hydroxymethyl)pyrazolo[1,5-a]pyrimidin-6-yl)-7-methyl-1H-indazol-1-yl)acetyl)-5-methyl-N-(3-methyl-6-(trifluoromethyl)pyridin-2-yl)-2-azabicyclo[3.1.0]hexane-3-carboxamide], less than 1000 nM.
In the case of `CC(=O)c1cn(CC(=O)N2[C@H](C(=O)Nc3nc(Br)ccc3C)C[C@@]3(C)C[C@@H]23)c2c(C)cc(-c3cnc(C(C)O)nc3)cc12` (stereo partly drawn) [Compound 157, (1R,3S,5R)-2-(2-(3-acetyl-5-(2-(1-hydroxyethyl)pyrimidin-5-yl)-7-methyl-1H-indol-1-yl)acetyl)-N-(6-bromo-3-methylpyridin-2-yl)-5-methyl-2-azabicyclo[3.1.0]hexane-3-carboxamide], the IC50 is less than 1000 nM.
For the compound `CC(=O)c1cn(CC(=O)N2[C@H](C(=O)Nc3nc(C(F)(F)F)ccc3C)C[C@@]3(C)C[C@@H]23)c2c(C)cc(-c3cnc(C)c(C)n3)cc12` [Compound 222, (1R,3S,5R)-2-(2-(3-acetyl-5-(5,6-dimethylpyrazin-2-yl)-7-methyl-1H-indol-1-yl)acetyl)-5-methyl-N-(3-methyl-6-(trifluoromethyl)pyridin-2-yl)-2-azabicyclo[3.1.0]hexane-3-carboxamide], the IC50 was less than 1000 nM.
In the case of `COCC(Cc1ccccc1)NC(=O)[C@@H]1C[C@@]2(C)C[C@H]2N1C(=O)Cn1nc(C(C)=O)c2cc(-c3cnc(C)nc3)cc(C)c21` (stereo partly drawn) [Compound 172, (1R,3S,5R)-2-{2-[3-acetyl-7-methyl-5-(2-methylpyrimidin-5-yl)indazol-1-yl]acetyl}-N-(1-methoxy-3-phenylpropan-2-yl)-5-methyl-2-azabicyclo[3.1.0]hexane-3-carboxamide], the IC50 is less than 1000 nM.
